# Experiment: Human HepG2 cell viability assay in 384 well format
# Type: toxicity, cell-based
# Parameters: dose 125 nL, time 70.5 hour; cytotoxicity at 70.5 h: concentration not given beside the values
# Conditions: HepG2 cells, read-out: Inhibition
row,SMILES,cytotoxicity at 70.5 h
1,CC(C)CCNC(=O)c1ccc2c(=O)n(-c3ccccc3)cnc2c1,-25.3%
2,CCCOc1c(Cl)cc(C(=O)N2CCOC23CCN(C)CC3)cc1Cl,7.29%
3,O=C(CCC(=O)N1CCC(c2noc3cc(F)ccc23)CC1)NC1CC1,13.1%
4,O=C1CCCC2=C1C(c1ccccc1F)Nc1nonc1N2 (configuration not stated),-3.65%
5,CCCc1nc2c(c(C)c(C)n2Cc2ccncc2)c(N)c1CC,53.6%
6,CC(C)n1nnc2c(sc3nc(N4CCOCC4)c4c(c32)CCC4)c1=O,-13.1%
7,Cc1nc(Cc2ccccc2)nc2sc(C(=O)O)c(C)c12,-5.63%
8,COC(=O)[C@H](C)NC(=O)Cn1ccc2ccc(F)cc21,-1.25%
9,COc1ccc(S(=O)(=O)NCCCc2nnc3nc(C)cc(C)n23)cc1,-7.77%
10,CC(C)CCNC(=O)CNC(=O)N1CCc2c([nH]c3ccc(Cl)cc23)C1,-19.7%
11,CSCC[C@@H](CO)NC(=O)c1sc(-c2ccc(Cl)cc2)nc1C,-11.9%
12,CC(C)Cc1nc(OCC(=O)O)c(C#N)c2c1CCCC2,-7.68%
13,O=C(Cc1csc(-c2cccc(Cl)c2)n1)NCc1cccc(C(=O)O)c1,-14.3%
14,Cc1nn2c(NC(=O)CSc3ncccn3)csc2nc1=O,-12.6%
15,O=C(NC1CCCC1)c1nc(COc2ccc3c(c2)OCO3)no1,-9.86%
16,CN1C(=O)C2(CC(=O)Nc3[nH]ncc32)c2cc(Cl)ccc21 (configuration not stated),-29.3%
17,O=C(C1CC1)N(Cc1ccc2cc[nH]c2c1)C1CC1,-22.5%
18,CNc1oc(COc2ccc3c(c2)OCO3)nc1C#N,-19.3%
19,Cc1nnc(SCC(=O)c2cc3c(cc2Cl)NC(=O)C3)o1,-31.5%
20,COCCNc1nc(N2CCOCC2)nc2nccnc12,-4.36%
21,COCCNC(=O)Cn1ccc2cccc(OC)c21,8.67%
22,Cc1nnc(SC2CCc3ccccc3NC2=O)o1 (configuration not stated),-16.3%
23,COc1cccc(N2Cc3nc(=O)n(Cc4cccc(F)c4)n3C2=O)c1,-20.7%

row,SMILES,cytotoxicity at 70.5 h
1,CNC(=O)c1nc(COc2c(C)occc2=O)no1,-14.3%
2,CC(C)c1nc2oc(C(=O)N3CCOCC3)c(N)c2c2c1CCCC2,-16.6%
3,Cc1nnc(SCC(=O)c2cc3c(cc2Cl)NC(=O)C3)s1,-30.2%
4,CC(C)CNC(=O)Cn1ccc2ccccc21,-0.252%
5,CN1CCN(S(=O)(=O)c2cccc(S(=O)(=O)C3CCS(=O)(=O)C3)c2)CC1 (configuration not stated),-11.1%
6,COC(=O)[C@H](CCSC)NC(=O)Cn1ccc2c(Cl)cccc21,-17.2%
7,O=C(Cc1noc(C(=O)NCC2CC2)n1)Nc1cccc(C(F)(F)F)c1,-7.55%
8,Cc1cccnc1NC(=O)C1(n2cnnn2)CCCCC1,-30.1%
9,CSc1nsc(SCC(=O)c2cc3c(cc2Cl)NC(=O)C3)n1,-29.3%
10,COc1ccc2c(ccn2CCC(=O)Nc2ccc(C(N)=O)cc2)c1,-7.39%
11,NC(=O)c1nc(CC(=O)Nc2cccc(C(F)(F)F)c2)no1,0.00692%
12,Cc1sc(-n2cnnn2)c(C(=O)NC(C)C)c1C,-10.9%
13,CSc1sc2c(O)cc(=O)[nH]c2c1C(N)=O,11.3%
14,Nc1nnc(SCC(=O)c2cc3c(cc2Cl)NC(=O)C3)s1,-25.4%
15,CC(C)C[C@H](NC(=O)Cn1ccc2c(Cl)cccc21)C(=O)O,-15.2%
16,COc1cccc(N2CCN(C(=O)COc3c(C)occc3=O)CC2)c1,10%
17,COc1ccc(N2CCN(C(=O)COc3c(C)occc3=O)CC2)cc1,2.1%
18,CC(=O)N1CCN(C(=O)c2ccc3ccn(C)c3c2)CC1,-15.9%
19,O=C(c1cc(=O)c(OCc2ccccc2F)co1)N1CCSCC1,-3.38%
20,CCc1c(C)sc2c1c(N)nc(=O)n2CCCN(C)C,5.31%
21,COc1coc(C(=O)Nc2nc(C)cs2)cc1=O,-15.8%
22,COc1ccc2c(ccn2CCC(=O)NCc2ccc(C(=O)O)cc2)c1,-13.5%
23,COc1ccc2cnn(CC(=O)NC3CCCC3)c(=O)c2c1OC,2.71%

row,SMILES,cytotoxicity at 70.5 h
1,O=C(c1cc(=O)c(OCc2ccccc2)co1)N1CCSCC1,-18.7%
2,CCc1c(C)sc2nc3n(CCN4CCCCC4)nc(SC)n3c(=O)c12,13.4%
3,CC(C)(CO)Nc1c(NCc2ccccc2)c(=O)c1=O,0.361%
4,O=C(COc1coc(CN2CCOCC2)cc1=O)Nc1ccccc1F,-12%
5,CC(C)(C)n1ncc2c1NC(=O)CSC2c1ccc2c(c1)OCO2 (configuration not stated),2.42%
6,CC(C)CCNc1nc(C(=O)NC2CC2)cs1,6.98%
7,O=C(COc1coc(CN2CCCCC2)cc1=O)Nc1cccc(Cl)c1,-7.03%
8,NC(=O)c1c(SCCN2CCOCC2)sc2c(O)cc(=O)[nH]c12,10.5%
9,Cc1nc(NC(=O)c2c(-n3cnnn3)sc(C)c2C)sc1C,-8.41%
10,O=C(NCC(=O)N1CCCC1)c1nc(Cc2c(Cl)cccc2Cl)no1,-16.3%
11,CS(=O)(=O)N1CCC2(CC1)CN(CCn1cccn1)C(=O)CO2,8.7%
12,O=C(c1ccc[nH]1)N1CC2(CCN(c3nccs3)C2)C1,-3.73%
13,O=C1[C@@H]2CCN(CC3CC3)C[C@@H]2OCCN1c1cccnc1,6.28%
14,Cc1cccc(NC(=O)N2Cc3c(CN(C)C)nn(C)c3C2)c1,-3.74%
15,O=C(c1ccnnc1)N1CCCn2nnc(COCC3CC3)c2C1,6.34%
16,COCc1nnn2c1CN(C(=O)c1c[nH]cn1)CCC2,0.823%
17,O=S(=O)(C1CC1)N1CCc2ncc(Cn3cccn3)n2CC1,-1.43%
18,O=C(c1ccsc1)N1CCc2nnc(COc3cncnc3)n2CC1,26.7%
19,O=C(c1cccs1)N1CCc2nnc(COc3cncnc3)n2CC1,14.1%
20,O=C(c1ncn2c1CNS(=O)(=O)c1ccccc1-2)N1CCOCC1,13.4%
21,O=C(Cc1cccs1)N1CCc2nnc(COc3cncnc3)n2CC1,14.8%
22,O=C(c1ccc2[nH]ccc2c1)N1Cc2nc(CN3CCCC3)oc2C1,-5.17%
23,CC(=O)N1C[C@H]2C3(CCN(S(C)(=O)=O)CC3)CC[C@@]2(C(=O)N(C)C)C1,-8.99%

row,SMILES,cytotoxicity at 70.5 h
1,Cc1cnc(N2CCOC3(CCCN(C(=O)C(C)C)C3)C2)nc1 (configuration not stated),-3.83%
2,Cn1ccc(CN2CCCC23CCNCC3)n1,-5.64%
3,COCCN1C=NC2(CCC(C(=O)Nc3ccc(C)cc3)CC2)C1=O (configuration not stated),-3.77%
4,CCS(=O)(=O)N1CCC2(CC1)CC[C@@]1(C(=O)NC)CN(C(C)=O)C[C@@H]21,11%
5,CCCc1n[nH]c(C2CN(C(=O)c3cccc4cn[nH]c34)CCO2)n1 (configuration not stated),-5.95%
6,Cc1cnn(-c2ccc(C(=O)N3CCCC(n4ccnc4C)C3)cc2)c1 (configuration not stated),-4.35%
7,CCCc1nc(CN2CCOC(Cn3cncn3)C2)cs1 (configuration not stated),22.5%
8,CCCN1CCC(CNC(=O)C2(c3ccccc3)CCC2)C1 (configuration not stated),18.5%
9,CCc1nnc2n1CCN(C(=O)CN(CC)CC)C2,44.6%
10,Cc1cnn(CC2CN(Cc3csc(C4CCCC4)n3)CCO2)c1 (configuration not stated),-0.185%
11,CC(C)c1nnc2n1CCN(C(=O)CN(C)Cc1ccccc1)C2,-1.56%
12,COc1cc(C(=O)N(Cc2cnn(C)c2)C(C)C)ccc1C,-1.26%
13,CCOc1cc(C(=O)N2CCCC(n3nc(C)nc3C)C2)ccn1 (configuration not stated),-3.74%
14,CN(C)S(=O)(=O)c1ccc(CN2CCCC2c2ccsc2)o1 (configuration not stated),-7.08%
15,CN(C)C(=O)CS(=O)(=O)Cc1cc(Cl)c2c(c1)OCCO2,3.21%
16,CC(NC(=O)NCC1(c2ccc(F)cc2)CC1)c1nncn1C (configuration not stated),-1.68%
17,COc1cc(C(=O)N(Cc2cnn(C)c2)C(C)C)ccc1OC(C)C,3.17%
18,Cc1cc(C)cc(C2(C(=O)NCC3CCN(CC(F)(F)F)C3)CC2)c1 (configuration not stated),-2.93%
19,Cn1ccc(CN2CCOCC23CCNCC3)n1,-6.05%
20,COc1cc(N2CCC3(CCCN3Cc3ccn(C)n3)CC2)ncn1,-3.28%
21,Cn1cc(C(=O)NC[C@H]2OC[C@@H]3CCN(C4CCOCC4)C[C@@H]32)cn1,-3.43%
22,Cc1ccc(N2CCC3(CC2)CCN(C2CCOC2)CC3)nn1 (configuration not stated),-6.73%
23,Cn1nc(CN2CCCC2)c2c1CN(C(=O)Nc1cccc(F)c1)CC2,-7.05%

row,SMILES,cytotoxicity at 70.5 h
1,O=C(c1ccncc1)N1CCCn2nnc(COCCO)c2C1,-5%
2,O=C1COC2(CCN(Cc3ccco3)CC2)CN1CCn1cccn1,-6.38%
3,COc1cc(N2CCC3(CCCN3Cc3cnn(C)c3)CC2)ncn1,-3.32%
4,Cc1nc(CN2C[C@@H]3CN(c4ncccn4)C[C@@H]3C2=O)cs1,-10.3%
5,CCCN1CCCn2c(nc(CNC(=O)c3ccsc3)cc2=O)C1,-3.68%
6,COCC1CC2(CCN(C(C)=O)CC2)CN1Cc1csc(C)n1 (configuration not stated),-4.16%
7,CCc1cnc(N2C[C@H]3CN(Cc4csc(C)n4)C(=O)[C@H]3C2)nc1,-8.61%
8,CCN1CCCC12CCN(C(=O)c1nccn1C)CC2,-7.36%
9,O=C(NC[C@H]1OC[C@@H]2CCN(C3CCOCC3)C[C@@H]21)c1ccncc1,-3%
10,Cc1noc(C)c1CN1CCc2cnn(C)c2C1COCC1CC1 (configuration not stated),-3.84%
11,COCCN1CCN(Cc2c(C)noc2C)Cc2ccc(C)nc21,-1.53%
12,CC(C)N1CCCn2c(nc(CNC(=O)c3nccn3C)cc2=O)C1,-17.1%
13,CN(C)[C@H]1COC[C@@H]2CN(Cc3ccc4c(c3)OCO4)C[C@@H]21,-3.62%
14,Cc1cnc(N2CCOC3(CCCN(CC(=O)N(C)C)C3)C2)nc1 (configuration not stated),-3.5%
15,CCOCC1CN(c2ccc(C)nn2)Cc2nn(CC)cc21 (configuration not stated),-7%
16,CN1CCn2c(-c3cnn(C)c3)cnc2C12CCN(CC1CC1)CC2,-4.02%
17,CN1CCn2c(-c3ccccc3)cnc2C12CCN(CC1CC1)CC2,-3.45%
18,Cc1noc(C)c1CN1CCN(CCN(C)C)c2ncccc2C1,-2.96%
19,CCN(CC)Cc1nc2c(o1)CN(C(=O)c1ccc3[nH]ccc3c1)C2,-17%
20,O=C(NCCc1c[nH]c2ccccc12)C1CCC(Cn2cnnn2)CC1 (configuration not stated),19.8%

# — ChEMBL document CHEMBL3507680, “University of Dundee, Gates Library screen for HepG2 cell viability”
